According to article PMC8146939 (Biomedicines, 2021):

Target: T1, GIRK2 (Homo sapiens, UniProt P48051)
T1 construct: gene KCNJ6; homotetramer GIRK2
T1 sequence (P48051 1-423): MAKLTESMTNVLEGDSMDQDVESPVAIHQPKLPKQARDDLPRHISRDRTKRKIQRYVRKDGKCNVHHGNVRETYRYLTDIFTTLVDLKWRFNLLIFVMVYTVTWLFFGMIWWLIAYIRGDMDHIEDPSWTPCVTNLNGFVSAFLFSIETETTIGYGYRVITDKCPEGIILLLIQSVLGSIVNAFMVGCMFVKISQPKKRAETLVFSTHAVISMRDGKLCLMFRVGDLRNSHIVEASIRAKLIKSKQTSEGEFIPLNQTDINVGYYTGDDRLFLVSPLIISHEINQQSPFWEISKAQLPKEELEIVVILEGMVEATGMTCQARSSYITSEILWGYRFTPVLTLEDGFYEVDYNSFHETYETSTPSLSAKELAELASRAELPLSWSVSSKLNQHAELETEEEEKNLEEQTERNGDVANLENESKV
Assay: two-electrode voltage clamp in Xenopus oocytes expressing homotetrameric GIRK2, single concentration […]
Assay type: cell-based
Conditions: read-out: % reduction in inward K+ currents at 10 μM

`Cc1c(C(=O)c2cccc3ccccc23)c2cccc3c2n1[C@H](CN1CCOCC1)CO3` [WIN55,212-2] gave an inhibition at 10 µM of 8.91 ± 1.68%.
